From US7999119B2, “Compounds having CRTH2 antagonist activity” (Oxagen Limited, priority 2006, dated 2011) come the findings set out here.

For the assay, the system named is PGD2 induced eosinophil shape change. Nature of the assay: Human whole blood eosinophil shape change assay. The assay is classed as cell-based. Particulars: Homo sapiens, Eosinophil, 10 nm PGD2-induced eosinophil shape change, human whole blood; read-out: Whole Blood IC50. The procedure:
Human Whole Blood Eosinophil Shape Change Assay
Compounds 1 to 3 were assayed for their effect on PGD2 induced eosinophil shape change and were compared with Comparator Compounds A to G.
Shape Change Assay in Whole Blood
Compounds (1 μl, 200× final concentration) were added directly to 200 μl whole blood, mixed well and incubated for 15 min, 37° C., 5% CO2. After this time, cell shape was fixed by addition of 300 μl Cytofix™ buffer (BD Biosciences), 15 min on ice. 10 ml RBC lysis buffer was added to the fixed cells, incubated 5 min, at room temperature and centrifuged, 300×g for 5 min. Supernatant (containing lysed red cells) was removed and the lysis step was repeated. Leukocytes were resuspended in 250 μl RPMI/10% FCS and shape change analysed by FACS. Eosinophils were gated out based on their autofluorescence and 2000 eosinophil events were counted per sample. Data were analysed in triplicate.
As to `Cc1c(Cc2cccc(S(=O)(=O)c3ccc(Cl)cc3)c2)c2cc(F)ccc2n1CC(=O)O` [Compound G, 2-{3-[3-(4-chlorophenylsulfonyl)benzyl]-5-fluoro-2-methyl-1H-indol-1-yl}acetic acid], the IC50 amounted to 4660 nM. In the case of `Cc1c(Cc2ccc(S(=O)(=O)c3ccc(F)cc3)cc2)c2cc(F)ccc2n1CC(=O)O` [Compound E, 2-{5-Fluoro-3-[4-(4-fluorophenylsulfonyl)benzyl]-2-methyl-1H-indol-1-yl}acetic acid], the IC50 was 71 nM.

As for `Cc1c(Cc2cccc(S(=O)(=O)c3ccccc3)c2)c2cc(F)ccc2n1CC(=O)O` [Compound F, 2-{5-Fluoro-2-methyl-3-[3-(phenylsulfonyl)benzyl]-1H-indol-1-yl}acetic acid], the IC50 worked out at 1500 nM.

In the case of `Cc1c(Cc2ccc(S(=O)(=O)c3ccc(Cl)cc3)cc2)c2cc(F)ccc2n1CC(=O)O` [Compound D, 2-{3-[4-(4-chlorophenylsulfonyl)benzyl]-5-fluoro-2-methyl-1H-indol-1-yl}acetic acid], the IC50 came to 494 nM. `Cc1c(Cc2ccc(S(=O)(=O)c3ccccc3)cc2)c2cc(F)ccc2n1CC(=O)O` [Compound C, 2-{5-Fluoro-2-methyl-3-[4-(phenylsulfonyl)benzyl]-1H-indol-1-yl}acetic acid]: the IC50 amounted to 273 nM.
